The source of these data is patent US6207677A, “Piperidine derivatives having anxiolytic effect” (H. Lundbeck A/S, priority 1991, dated 2001).

For this assay, the target named is sigma receptors. Briefly: Inhibition of 3H-DTG binding to sigma receptors in rat brain in vitro. The settings on record: 2 nM 3H-DTG, rat brain without cerebellum, 25° C., 20 min. The procedure:
INHIBITION OF 3H-DTG BINDING TO SIGMA RECEPTORS IN RAT BRAIN IN VITRO
By this method the inhibition by drugs of the binding of 2 nM ^3 H-DTG (1,3,di-o-tolyl guanidine) to sigma receptors in homogenates or membranes from rat brain without cerebellum is determined in vitro as modified from Weber et al. Proc. Natl. Acad. Sci. 1986, 83,8784.
Homogenate: Rats (150-250 g) are decapitated and the brains (without cerebellum) quickly removed and placed on ice, weighed and homogenized in 100 vol ice-cold (0° C.) 50 mM Tris-buffer (pH 7.7) in an ethanol rinsed glass/teflon homogenizer at 0° C. and kept on ice until use.
P2-membranes: Brains are homogenized in 10 vol 0.32 M sucrose in an ethanol rinsed glass/teflon homogenizer with 10 strokes up and down. The homogenate is centrifuged for 10 min at 900×gm at 4° C. The supernatant is decanted and centrifuged for 20 min at 50,000 gm at 4° C. The resulting pellet is resuspended in 10 vol ice-cold […] Tris-buffer (pH 7.7) and incubated for 30 min. at 37° C. The membrane suspension is then centrifuged for further 20 min. at 50,000 gm at 4° C. The pellet is resuspended in 50 vol. of ice-cold Tris-buffer and used immediately.
0.5 ml 50 mM Tris-buffer (pH 7.7), 0.25 ml displacer (6×100 μM DTG, 6× [test compound], or Tris-buffer), and 0.25 ml 6×2 nM. ^3 H-DTG are mixed into 5 ml s plastic test tubes and kept at 4° C. until use. The binding reaction is initiated by mixing 0.5 ml tissue suspension into this solution and incubate at 25° C. for 20 min. Glass fiber filters (Whatman GF/B) are placed on the filter machine which is then closed tightly. Just before filtration vacuum is applied, and the filters washed with 0.1% PEI solution from a spray bottle followed by one wash with Tris-buffer.
The binding reaction is stopped by filtration of the assay mixture at reduced pressure (750 mbar) followed by further 3 washes with 5 ml ice-cold Tris-buffer. The filters are then placed in counting vials and 4 ml scintillation solution added. The vials are counted in a Beckmann scintillation counter.
50 mM Tris-buffer pH 7.7: 7.38 g Trizma--7.7 plus distilled H2 O ad 1 liter. 100 ml 10% polyethylenimine (PEI): 100 ml dest. H2 O is added to approx. 20 g 50% PEI which is solubilized by stirring and heating. Diluted (1+99) before use. 6×2 nM ^3 H-DTG: The exact volume depends on the actual concentration of the batch, but is made as close as possible to 12 nM. The containers for the radioactive solution is rinsed in 96% ethanol before use.
^3 H-DTG was obtained from NEN Research Products, Du Pont Denmark. Specific activity 62.3 Ci/mmol.
The known sigma receptor ligands BMY 14802 and rimcazole were included in the test for comparison purposes.

What is called IC50 is the concentration at which inhibition is half-maximal. A low value points to inhibition by little substance.

Regarding `CC(C)CCCCN1CCC2(CC1)OCc1ccccc12` [Compound 4b, 1'-(5-Methyl-1-hexyl)-spiro[isobenzofuran-1(3H),4'-piperidine)], the IC50 was 0.53 nM. The same measure for `C1=CC2(CCN(CCCCc3ccccc3)CC2)Oc2ccccc21` [Compound 2i, 1'-(4-Phenyl-1-butyl)spiro[2H-1-benzopyran-2,4'-piperidine]]: 4.3 nM.

In turn, `O=C1N(CCCN2CCC3(CC2)OCc2ccccc23)CCN1c1ccccc1` [Compound 3c] displayed an IC50 of 1 nM.

`CN(C)c1ccc(C2CCN(CCCCc3cn(-c4ccc(F)cc4)c4ccccc34)CC2)cc1` [Compound 9o, 1-(4-Fluorophenyl)-3-[4-(4-(4-dimethylaminophenyl)-1-piperidyl)-1-butyl]indole] had a half-inhibitory concentration (IC50) of 6.7 nM. This IC50 is about 6.7-fold higher than that of the compound before. Under `Fc1ccc(-n2cc(OCCCN3CCC4(CC3)OCc3ccccc34)c3ccc(Cl)cc32)cc1` [Compound 8b, 1'-[3-[6-Chloro-1-(4-fluorophenyl)-3-indolytoxy)-1-propyl]spiro[isobenzofuran-1(3M),4'-piperidine]] stands 1.7 nM; under `Cn1cc(CCCCN2CCC3(CC2)OCc2ccccc23)c2ccccc21` [Compound 2bb, 1'-[4-(1-Methyl-3-indolyl)-1-butyl]-spiro[isobenzofuran-1(3H),4'-piperidine]], 0.3 nM; under `O=S1(=O)CC(=CCCCN2CCC3(CC2)OCc2ccccc23)c2ccccc21` [Compound 32, 1'-[4-(2. 3-Dihydro-benzo[b]thiophen-3-yliden)-1-butyl]spiro[isobenzofuran-1(3H),4'-piperidine]-S,S-dioxide], 0.89 nM. The same measure for `O=S(=O)(CCCN1CCC2(CC1)OCc1ccccc12)C1CCCCC1` [Compound 2r, 1'-(3-Cyclohexylsulfonyl-1-propyl)spiro[isobenzofuran-1(3H),4'-piperidine]]: 3 nM; for `c1ccc(C2CCN(CCCCc3c[nH]c4ccccc34)CC2)cc1` [Compound 2cc, 3-[4-(4-Phenyl-1-piperidyl)-1-butyl]indole]: 1.1 nM; for `c1ccc2c(c1)COC21CCN(CCCOc2csc3ccccc23)CC1` [Compound 34, 1'-[3-(Benzo[b]thiophen-3-yloxy)-1-propyl]spiro[isobenzofuran-1(3H),4'-piperidine]]: 0.27 nM.

As for `C(=CC1CCc2ccccc21)CCN1CCC2(CC1)OCc1ccccc12` (stereo not drawn) [Compound 29, 1'-[4-(1-Indanyl)-but-3-en-1-yl]-spiro[isobenzofuran-1(3H),4'-piperidine]], the IC50 was determined as 0.12 nM. Take `Fc1ccc(C2CCN(CCCOc3nsc4ccccc34)CC2)cc1` [Compound 21, 3-[3-(4-(4-Fluorophenyl)-piperidin-1-yl)-1-propyloxy]-1,2-benzisothiazole]: the IC50 turned out to be 0.2 nM. On to `c1ccc2c(c1)CCC2CCCCN1CCC2(CC1)OCc1ccccc12` (stereo not drawn) [Compound 28, 1'-[4-(Indan-1-yl)-1-butyl]-spiro(isobenzofuran-1(3H),4'-piperidine]], for which the IC50 stood at 0.15 nM.

Consider `c1ccc2c(c1)COC21CCN(CCCCC2CCCCC2)CC1` [Compound 2b, 1'-(4-Cyclohexyl-1-butyl)spiro[isobenzofuran-1(3H), 4'-piperidine)], for which the IC50 worked out at 0.07 nM.

As to `c1ccc2c(c1)NCC2CCCCN1CCC2(CC1)Oc1ccccc1O2` (stereo not drawn) [Compound 13a, 1'-[4-(2,3-Dihydro-3-indolyl)-1-butyl]spiro[1,3-benzodioxole-2,4'-piperidine]], the IC50 was determined as 3.7 nM. Under `c1cncc(-n2cc(CCCCN3CCC4(CC3)COCc3ccccc34)c3ccccc32)c1` [Compound 9k, 1'-[4-[1-(3-Pyridinyl)-3-indolyl]-1-butyl]spiro[1H-2-benzopyran-4(3H), 4'-piperidine]] stands 0.92 nM; under `Fc1ccc(C2CCN(CCCCCCc3c[nH]c4ccccc34)CC2)cc1` [Compound 2ff, 3-[6-(4-(4-Fluorophenyl)-1-piperidinyl)-1-hexyl]indole], 0.43 nM; under `c1ccc2c(c1)COCC21CCN(CCCCc2c[nH]c3ccccc23)CC1` [Compound 2v, 1'-[4-(3-Indolyl)-1-butyl]-spiro[1H-2-benzopyran-4(3H),4'-piperidine]], 1.8 nM.

For `Fc1ccc(C2CCN(CCCCc3cn(-c4ccc(F)cc4)c4ccccc34)CC2)cc1` [Compound 9l, 1-(4-Fluorophenyl)-3-[4-(4-(4-fluorophenyl)-1-piperidyl)-1-butyl]indole], the IC50 was determined as 0.14 nM.

As for `CC(C)c1ccc(C2CCN(CCCCc3cn(-c4ccc(F)cc4)c4ccccc34)CC2)cc1` [Compound 9n, 1-(4-Fluorophenyl)-3-[4-(4-(4-isopropylphenyl)-1-piperidyl)-1-butyl]indole], the half-maximal inhibitory concentration (IC50) was 6.3 nM.

On to `OC(CCCN1CCC2(CC1)OCc1ccccc12)c1ccccc1` (stereo not drawn) [Compound 26b, 1'-(4-Phenyl-4-hydroxy-1-butyl)-spiro[isobenzofuran-1(3H),4'-piperidine]], for which the IC50 turned out to be 1.9 nM. Consider `Fc1ccc(C2CCN(CCOc3cn(-c4ccc(F)cc4)c4ccc(Cl)cc34)CC2)cc1` [Compound 14b], for which the IC50 turned out to be 3.8 nM. `Fc1ccc(C2CCN(CCCCc3noc4ccccc34)CC2)cc1` [Compound 19b, 3-[4-(4-(4-Fluorophenyl)-1-piperidyl)-1-butyl]-1,2-benzisoxazole] registered an IC50 of 0.49 nM.

The compound `O=C1N(CCN2CCC3(CC2)OCc2ccccc23)CCN1c1ccccc1` [Compound 3b] displayed an IC50 of 4.8 nM.

In turn, `CCCN1CCC2(CC1)OCc1ccccc12` [Compound 4a, 1'-Propyl-spiro[isobenzofuran-1(3H),4'-piperidine]] gave an IC50 of 23 nM. The compound `COc1ccccc1C1CCN(CCCCc2c[nH]c3ccccc23)CC1` [Compound 2gg, 3-[4-(4-(2-Methoxyphenyl)-1-piperidinyl)-1-butyl]indol] had an IC50 of 3.3 nM. This IC50 lies about 7-fold lower than the previous one. On to `Fc1ccc2occ(CCCCN3CCC4(CC3)OCc3ccccc34)c2c1` [Compound 16, 1'-[4-(5-Fluorobenzofuran-3-yl)-1-butyl]-spiro[isobenzofuran-1(3H) ,4'-piperidine]], for which the 50% inhibitory concentration (IC50) is 0.15 nM. The compound `c1ccc2c(c1)COC21CCN(CCCSc2csc3ccccc23)CC1` [Compound 31a] gave an IC50 of 0.23 nM. Compared with the last compound, the IC50 is about 1.5-fold higher. For the compound `c1ccc(CCCCN2CCC3(CCc4ccccc43)CC2)cc1` [Compound 2c, 2,3-Dihydro-1'-(4-phenyl-1-butyl)spiro[1H-indene-1,4'-piperidine]], the IC50 stood at 0.51 nM. Under `c1ccc(CCCCN2CCC3(CCCc4ccccc43)CC2)cc1` [Compound 2e, 3,4-Dihydro-1'-(4-phenyl-1-butyl)spiro[naphtalene-1(2H),4'-piperidine]] stands 1.2 nM. For `Cc1ccc(C2CCN(CCCCc3cn(-c4ccc(F)cc4)c4ccccc34)CC2)cc1` [Compound 9m, 1-(4-Fluorophenyl)-3-[4-(4-(4-methylphenyl)-1-piperidyl)-1-butyl]indole], the IC50 worked out at 1.6 nM. `c1csc(-n2cc(CCCCN3CCC4(CC3)OCc3ccccc34)c3ccccc32)c1` [Compound 5d, 1'-[4-[1-(2-Thienyl)-3-indolyl]-1-butyl]spiro[isobenzofuran-1(3H),4'-piperidine]] displayed an IC50 of 0.24 nM. In turn, `c1ccc2c(c1)COC21CCN(CCCc2noc3ccccc23)CC1` [Compound 20, 1'-(3-(1,2-Benzisoxazol-3-yl)-1-propyl)spiro[isobenzofuran-1(3H) ,4'-piperidine]] gave a half-inhibitory concentration (IC50) of 0.63 nM. This IC50 is about 2.6-fold higher than that of the compound before. The same measure for `Fc1ccc(-n2nc(CCCCN3CCC4(CC3)OCc3ccccc34)c3cc(C(F)(F)F)ccc32)cc1` [Compound 17a, 1'-[4-[1-(4-Fluorophenyl)-5-trifluoromethylindazol-3-yl]-1-butyl]spiro[isobenzofuran-1(3H),4'-piperidine]]: 0.11 nM.

`Fc1ccc2c(c1)C(CCCCN1CCC3(CC1)OCc1ccccc13)CO2` (stereo not drawn) [Compound 12, 1'-(4-(2,3-Dihydro-5-fluoro-benzofuran-3-yl)-1-butyl]-spiro[isobenzofuran-1(3H),4'-piperidine]]: the IC50 turned out to be 0.3 nM. Compared with the last compound, the IC50 is about 2.7-fold higher.

Regarding `CC(=O)n1cc(CCCCN2CCC3(CC2)OCc2ccccc23)c2ccccc21` [Compound 7, 1'-(4-(1-Acetyl-3-indolyl)-1-butyl)spiro[isobenzofuran-1 (3H),4'-piperidine]], the IC50 is 0.21 nM.
